This is an account of results in publication PMC7272617 (Scientific Reports, 2020).

In brackets after ≈: the same amount, converted by molar mass. Where a SMILES comes first, the peptide text is derived from it.

For assay [1], the system named is MDR P. aeruginosa clinical isolate No.14. The settings on record: MDR clinical isolate No.14, 24 h.
The subject of assay [2] is Vibrio cholera O1 Inaba DMST 16261. The settings on record: MHB, 37 °C, 24 h.
The test system of assay [3] is Salmonella Typhimurium ATCC 13311. The settings on record: ATCC 13311, 24 h.
The subject of assay [4] is MDR P. aeruginosa clinical isolate No.6. The following applies: MDR clinical isolate No.6, 24 h.
The test system of assay [5] is Bacillus cereus ATCC 11778. The settings on record: ATCC 11778, 24 h.
The next assay deals with human TLR4 (hTLR4). Kind of assay: LPS-mediated TLR4 activation, HEK-Blue hTLR4 SEAP reporter. Type of assay: cell-based. The following applies: 250 ng/ml LPS of P. aeruginosa serotype 10, 0.98-250 µg/ml peptide, 16 h; result in words. As for the experimental part: Stimulation with LPS activates NF-kB and AP-1, inducing the production of SEAP. Opposing this, the peptide can interact with LPS and inhibit TLR4 signal transduction, and so decrease production of SEAP. The hydrolysis of substrate by SEAP produces a purple/blue color.
Briefly, HEK-Blue hTLR4 cells (3 × 10^4 cells/well) were seeded in 96-well plates and incubated at 37 °C in an air atmosphere containing 5% CO2 for 24 h. These cells were further incubated with 250 ng/ml LPS of P. aeruginosa serotype 10 (Sigma) and different concentrations of PA-13 (0.98-250 µg/ml) for 16 h. After incubation, supernatants were collected and incubated with QUANTI-Blue™ (InvivoGen). The absorbance of SEAP was monitored at 620 nm. The results were calculated from at least three independent experiments.

Usually MIC stands for the lowest concentration that inhibits growth of the organism. Higher therefore signals a need for much substance.

In the case of `CC[C@H](C)[C@H](NC(=O)[C@H](CCCNC(=N)N)NC(=O)[C@H](CCCCN)NC(=O)[C@H](C)NC(=O)[C@@H](NC(=O)[C@@H](N)CCCCN)[C@@H](C)CC)C(=O)N[C@@H](Cc1c[nH]c2ccccc12)C(=O)N[C@@H](CCCCN)C(=O)N[C@H](C(=O)N[C@@H](CC(C)C)C(=O)N[C@@H](CCCNC(=N)N)C(=O)N[C@@H](CCCNC(=N)N)C(=O)N[C@@H](CCCNC(=N)N)C(N)=O)[C@@H](C)CC` [PA-13] (H-KIAKRIWKILRRR-NH2; N-terminus assumed), the MIC in assay [1] worked out at 7.81 µg/mL (≈ 4.5 µM); in assay [2], 31.25 µg/mL (≈ 18 µM); in assay [3], 1.95 µg/mL (≈ 1.12 µM); in assay [4] it was 7.81 µg/mL (≈ 4.5 µM); in assay [5], 15.63 µg/mL (≈ 9 µM). Also, in the assay with human TLR4 (hTLR4), the “inhibition of LPS-mediated TLR4 activation” value is “dose-dependent inhibition”.
